Measurements: PubChem BioAssay (NCI)
“And” between values parts separate entries of the source, which are not always exact repeats. Identical values can stand only once.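 These data come from cells grown in 96-well plates and exposed to compound for 48 hours at five concentrations. GI50 = concentration required for 50% inhibition of growth. TGI: concentration producing complete growth inhibition.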

Legend:
Experiment in all cases: NCI-60 cell line screen, 48 h
TK-10 renal = tested on: TK-10 renal
IGROV1 ovarian = tested on: IGROV1 ovarian
NCI-H23 lung = tested on: NCI-H23 lung
MOLT-4 leukemia = tested on: MOLT-4 leukemia
CCRF-CEM leukemia = tested on: CCRF-CEM leukemia
OVCAR-3 ovarian = tested on: OVCAR-3 ovarian
786-0 renal = tested on: 786-0 renal
DU-145 prostate = tested on: DU-145 prostate
HS 578T breast = tested on: HS 578T breast
MDA-MB-231 breast = tested on: MDA-MB-231 breast

Row | Compound | TGI (TK-10 renal) | TGI (IGROV1 ovarian) [µM] | TGI (NCI-H23 lung) | TGI (MOLT-4 leukemia) | TGI (CCRF-CEM leukemia) | TGI (OVCAR-3 ovarian) [µM] | TGI (786-0 renal) | TGI (DU-145 prostate) [µM] | TGI (HS 578T breast) [µM] | TGI (MDA-MB-231 breast) [µM] | GI50 (TK-10 renal) [µM] | GI50 (IGROV1 ovarian) [µM] | GI50 (DU-145 prostate) [µM] | GI50 (HS 578T breast) [µM] | GI50 (MDA-MB-231 breast) [µM] | GI50 (MOLT-4 leukemia) [µM] | GI50 (CCRF-CEM leukemia) [µM] | GI50 (OVCAR-3 ovarian) [µM] | GI50 (786-0 renal) [µM] | GI50 (NCI-H23 lung) [µM]
1 | O=C(O)CCCCCO | > 100 µM | > 100 | > 100 µM | > 100 µM | > 100 µM | > 100 | > 100 µM | – | – | – | – | – | – | – | – | – | – | – | – | –
2 | NCCCC1NC(=O)/C(=C(O)/C=C/C2CCC[C@@H]2CC2SCCS2)C1=O (stereo partly drawn) | > 100 µM | > 100 | > 100 µM | > 100 µM | > 100 µM | > 100 | > 100 µM | – | – | – | – | – | – | – | – | – | – | – | – | –
3 | NC(CSc1nc2ccccn2c1[N+](=O)[O-])C(=O)O (stereo not drawn) | > 100 µM | > 100 | > 100 µM | – | – | > 100 | > 100 µM | > 100 | > 100 | > 100 | – | – | – | – | – | – | – | – | – | –
4 | CC1=C(C(=O)CC(=O)C(=O)Nc2ccccc2)Sc2ccccc2N1 | – | > 100 | > 100 µM | > 100 µM | > 100 µM | > 100 | > 100 µM | – | – | – | – | – | – | – | – | – | – | – | – | –
5 | CCc1ccc(Nc2cc(=O)[nH]c(=S)n2C)cc1 | > 100 µM | > 100 | > 100 µM | > 100 µM | > 100 µM | > 100 | > 100 µM | – | – | – | – | – | – | – | – | – | – | – | – | –
6 | O=C(NC(=S)NNC(=S)NNc1ccccc1)c1ccccc1 | > 100 µM | > 100 | – | 49.9 µM | > 100 µM | > 100 | > 100 µM | > 100 | > 100 | > 100 | 35.4 | 4.8 | 44.1 | 1.55 | 12.9 | 4.81 | 5.33 | 18.2 | 24.8 | –
7 | NC(=S)NNC(=O)CCC(=O)Nc1ccc(Cl)cc1Cl | > 100 µM | > 100 | > 100 µM | > 100 µM | > 100 µM | > 100 | > 100 µM | – | – | – | – | – | – | – | – | – | – | – | – | –
8 | O=C1c2cc3c(cc2[C@@H]2[C@H]1c1ccc([N+](=O)[O-])cc1C(=O)N2CCCCl)OCO3 | – | > 100 | 0.0398 µM | > 100 µM | – | 0.456 | < 0.0135 µM | – | 61.5 | 2.38 | 0.0868 | < 0.01 | < 0.01 | 0.174 | < 0.0416 | > 100 | – | 0.073 | < 0.01 | < 0.01
9 | CCC[CH2][Ge]([CH2]CCC)([CH2]CCC)[O]C(=O)C(OC)c1ccccc1 (stereo not drawn) | > 100 µM | > 100 | 51.8 µM | > 60.6 µM | > 100 µM | > 70.2 | > 100 µM | – | – | – | > 91.9 | > 74.7 | – | – | – | 3.74 | 2.09 | 11.1 | 47.2 | 6.86
10 | CCC[CH2][Sn]([CH2]CCC)([O]C(=O)c1cc(OC)c(OC)cc1OC)[O]C(=O)c1cc(OC)c(OC)cc1OC | 2.84 µM | 2.96 | 1.96 µM | 6.43 µM | 1.11 µM | 2.86 | 2.78 µM | – | – | – | 1.5 | 1.43 | – | – | – | 0.747 | 0.295 | 1.3 | 1.41 | 0.674
11 | CCOC(=O)N1N=NC2C3OC(C[C@@]3(C#N)OC(C)=O)[C@H]21 (stereo partly drawn) | > 100 µM | > 100 | > 100 µM | > 100 µM | > 100 µM | > 100 | > 100 µM | – | – | – | – | – | – | – | – | – | – | – | – | –
12 | CCCCCCCCCC1C(C)c2c([nH]c3ccccc23)C2C(=O)N(c3ccccc3)C(=O)C21 (stereo not drawn) | 73.5 µM | 35.3 | 13.6 µM | 9.44 µM | 8.05 µM | 10.8 | 25.1 µM | – | – | – | – | – | – | – | – | – | – | – | – | –
13 | COc1cc2ccnc(-c3c4ccccc4c(N)c4c(OC)c(OC)ccc34)c2cc1OC | 22.2 µM | 14.5 | 17.7 µM | 9.53 µM | 14.2 µM | – | 11.5 µM | – | – | – | – | – | – | – | – | – | – | – | – | –
14 | Nc1ncnc2c(C3OC(CO)C(O)C3O)scc12 (stereo not drawn) | 4.01 µM and 4.24 µM | 3.3 | 1.33 µM and 1.39 µM | 1.99 µM and 1.9 µM | 4.88 µM and 1.56 µM | 0.0287 | 4.5 µM and 3.08 µM | – | – | – | 0.0186 | 0.0179 | – | – | – | 0.0989 | – | – | 0.168 | 0.0585
15 | CC1=CC2=C(C(N)=O)C(=O)OC2(C)C(c2ccccc2)C1 (stereo not drawn) | > 100 µM | > 100 | – | > 100 µM | – | > 100 | > 100 µM | > 100 | > 100 | > 100 | – | – | – | – | – | – | – | – | – | –
16 | CC(=O)OC1C/C(C)=C/CCC(C)/C=C/C2(C)CCC(C(C)(C)O)C12 (stereo not drawn) | > 100 µM | > 100 | > 100 µM | > 100 µM | > 100 µM | > 100 | > 100 µM | – | – | – | – | – | – | – | – | – | – | – | – | –
17 | COc1ccc2c(c1)sc1nc(-c3ccccc3)c(-c3ccc(O)c(OC)c3)n12 | > 100 µM | > 100 | > 100 µM | > 100 µM | – | 63.8 | > 100 µM | > 100 | > 100 | > 100 | > 100 | > 100 | 35.4 | > 100 | 9.8 | 12.8 | – | 10.1 | 30.9 | 95.5
18 | COc1cc(/C=C/c2ccc(OC(C)=O)cc2)cc(OC)c1OC | > 100 µM | > 100 | – | 75.7 µM | > 100 µM | 68.2 | > 100 µM | – | – | – | – | – | – | – | – | – | – | – | – | –
19 | CCC[CH2][Ge]([CH2]CCC)([CH2]CCC)[O]C(=O)C(O)c1ccccc1 (stereo not drawn) | > 100 µM | 30.6 | 9.91 µM | > 39.4 µM | 25.7 µM | 18.4 | 23.2 µM | – | – | – | 18 | 9.44 | – | – | – | 0.602 | 0.207 | 1.35 | 7.41 | 0.366
20 | Cc1ccccc1-c1c(N)nc(N)nc1C(=O)Nc1nccs1 | > 100 µM | > 100 | > 100 µM | > 100 µM | > 100 µM | > 100 | > 100 µM | – | – | – | – | – | – | – | – | – | – | – | – | –
21 | CCC1(C(=O)OC)CCc2c(OC)ccc(OC)c2C1=O (stereo not drawn) | > 100 µM | > 100 | > 100 µM | > 100 µM | > 100 µM | > 100 | > 100 µM | – | – | – | – | – | – | – | – | – | – | – | – | –
